Measurements reported in article PMC3526545, “New perspectives for natural antimicrobial peptides: application as antinflammatory drugs in a murine model” (BMC Immunology, 2012).
“And” between values parts separate entries of the source, which are not always exact repeats. Identical values can stand only once.

Tests used:
J774 cells [1] = assay: TNF-α, IFN-γ, IL-10 mRNA expression in J774 cells (real time PCR); format: cell-based, mouse; settings: gentamicin 5 μg/ml, ASA 5 μg/ml or MIX (RJI-C 9 μg/ml + TB-KK 6 μg/ml) for 3 hours; Figure 3B
[2] = system: Staphylococcus epidermidis strains; assay: Antibiotic susceptibility, disk diffusion method on Mueller-Hinton agar; format: cell-based; settings: all 10 Staphylococcus epidermidis strains
COX-2 = settings: mouse, in vivo
CD64 = settings: mouse, in vivo
[3] = system: probiotics bacteria (Lactobacillus plantarum, Lactobacillus Paracasei, Bifidobacterium animalis); assay: Antibacterial activity against probiotics bacteria, overall statement; format: cell-based; settings: MIX RJI-C 9 μg/ml + TB-KK 6 μg/ml; gentamicin 5 μg/ml
Procedure: The growth inhibition percentages of Staphylococcus epidermidis and probiotic strains were assessed under the same conditions.

[4] = system: Staphylococcus epidermidis strains; assay: Antibacterial activity of AMPs (MIC100) and synergism (FIC index); format: cell-based; settings: against Staphylococcus epidermidis strains, single agent
Procedure: (§1) Antibacterial activity of the peptides used in this work was evaluated as described previously. […] The fractional inhibitory concentration (FIC) index for combinations of two peptides was calculated according to the equation: FIC index = […] = A/MICA + B/MICB , where A and B are the MICs of drug A and drug B in the combination, MICA and MICB are the MICs of drug A and drug B alone, and FICA and FICB are the FICs of drug A and drug B. The FIC indices were interpreted as follows: ≤0.5, synergy; 0.51-4.0, no interaction; > 4.0, antagonism.

[5] = system: Staphylococcus epidermidis (SE); settings: mouse, in vivo, iv
[6] = system: SAA, haptoglobin, fibrinogen; assay: Acute phase proteins in blood of infected mice; format: in vivo, mouse
[7] = system: Staphylococcus epidermidis (SE); settings: mouse, in vivo, iv; remark: listed apart in the source
[8] = system: Staphylococcus epidermidis strains; assay: % inhibition of bacterial growth by the MIX and its components; format: cell-based; settings: MIX = both
Procedure: as §1, with “antagonism. The growth inhibition percentages of Staphylococcus epidermidis and probiotic strains were assessed under the same conditions.” for “antagonism.”

J774 cells [9] = assay: Nitrite (NO2-) formation in J774 cells, Griess reaction; format: cell-based, mouse

## CC(=O)Oc1ccccc1C(=O)O [ASA, acetylsalicylic acid]
J774 cells [1]
  induction of inflammation (TNF-α, IFN-γ, IL-10 mRNA) in J774 cells without LPS: do not induce inflammation

## C[C@H]1[C@H](NC(=O)/C(=N\OC(C)(C)C(=O)O)c2csc(N)n2)C(=O)N1S(=O)(=O)O [ATM30, aztreonam]
[2]
  antibiotic resistance pattern, all strains: resistant

## Cc1onc(-c2ccccc2Cl)c1C(=O)N[C@@H]1C(=O)N2[C@@H]1SC(C)(C)[C@@H]2C(=O)O [CX1, cloxacillin]
[2]
  antibiotic resistance pattern, all strains: resistant

## CNC(C)C1CCC(N)C(OC2C(N)CC(N)C(OC3OCC(C)(O)C(NC)C3O)C2O)O1 (stereo not drawn) [Gentamicin, gentamicin]
COX-2
  COX-2 expression level in kidney: COX-2 expression level returned to the normal level nine hours after the treatment
CD64
  expression of the CD64 marker in blood: decreased expression of the CD64 marker
[3]
  antibacterial activity against probiotics bacteria, in words: killed the totality of the probiotics tested
[4]; 10^5 CFU/well
  MIC: 5 mg/L
[4]; value in brackets
  MIC: 10 µM
[5]
  infection status of kidneys and spleens eleven days after the infection: still infected
J774 cells [1]
  induction of inflammation (TNF-α, IFN-γ, IL-10 mRNA) in J774 cells without LPS: do not induce inflammation
[6]; 3h after treatment, blood of mice infected with Staphylococcus epidermidis, naive 6±0.8, control 17±0.6
  SAA: 20 ± 0.8 mg/dL
[6]; 6h after treatment, control 19.1±0.5
  SAA: 18.4 ± 1.2 mg/dL
[6]; 6h after treatment, control 329±55.2
  Haptoglobin: 264 ± 58.3 mg/dL
[6]; 9h after treatment, control 21.7±0.9
  SAA: 16 ± 0.7 mg/dL
[6]; mouse, in vivo
  Fibrinogen: 340 ± 41.0 mg/dL and 385 ± 45.2 mg/dL and 364 ± 12.6 mg/dL
  Haptoglobin: 244 ± 42.5 mg/dL and 278 ± 42.9 mg/dL
  SAA, haptoglobin and fibrinogen, in words: within normal ranges
[7]
  bacterial load of kidneys and spleens: decreased

## C[C@@H](O)[C@H]1C(=O)N2C(C(=O)O)=C(SCCN=CN)C[C@H]12 [IPM10, imipenem]
[2]
  antibiotic resistance pattern, all strains: sensitive

## Cc1ncc([N+](=O)[O-])n1CCO [M80, metronidazole]
[2]
  antibiotic resistance pattern, all strains: resistant

## PFKIDIHLGGY-NH2 [RJI-C, analogue of the royal jellein I, chemically modified at the C terminal]
[8]; strain 2/2, RJI-C 9 μg/ml, TB-KK 6 μg/ml
  % inhibition of bacterial growth: 18 ± 1%
[8]; strain 3/28, RJI-C 9 μg/ml (7.3 μM), TB-KK 6 μg/ml (2.6 μM)
  % inhibition of bacterial growth: 17 ± 2%
[8]; strain 5/6, RJI-C 9 μg/ml, TB-KK 6 μg/ml
  % inhibition of bacterial growth: 4 ± 3%
[8]; strain 5/8, RJI-C 9 μg/ml, TB-KK 6 μg/ml
  % inhibition of bacterial growth: 12 ± 2%
[8]; strain 5/25, RJI-C 9 μg/ml, TB-KK 6 μg/ml
  % inhibition of bacterial growth: 15 ± 1%
[8]; strain 9/1, RJI-C 9 μg/ml, TB-KK 6 μg/ml
  % inhibition of bacterial growth: 18 ± 0%
[8]; strain 10/28, RJI-C 9 μg/ml, TB-KK 6 μg/ml
  % inhibition of bacterial growth: 0%
[8]; strain 12/14, RJI-C 9 μg/ml, TB-KK 6 μg/ml
  % inhibition of bacterial growth: 11 ± 0.5%
[8]; strain 12/26, RJI-C 9 μg/ml, TB-KK 6 μg/ml
  % inhibition of bacterial growth: 19 ± 2%
J774 cells [9]
  NO2- synthesis in LPS-stimulated J774 cells, in words: reduced NO2^- synthesis
[4]; 10^5 CFU/well
  MIC100: 30 mg/L
[4]; value in brackets
  MIC: 24 µM

## bacitracin [B2]
[2]
  antibiotic resistance pattern, all strains: resistant
